Results as given in ChEMBL document CHEMBL1201862, “PubChem BioAssay data set” (2004).
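Tested at 5 concentrations; 48 h exposure; 96-well plates; endpoints linearly interpolated, else capped at highest concentration. The concentration for 50% growth inhibition is given as GI50.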 Calls of active or inactive are those of the source. No stated cut-off is given here; in the data, active = GI50 up to about 1.1 µM and inactive = higher.

Columns and labels:
Test in all cases: NCI tumour cell line growth inhibition, 48 h
786-0 = tested on: 786-0
A498 = tested on: A498
A549 = tested on: A549
ACHN = tested on: ACHN
BT-549 = tested on: BT-549
CAKI-1 = tested on: CAKI-1
CCRF-CEM = tested on: CCRF-CEM
COLO 205 = tested on: COLO 205
DU-145 = tested on: DU-145
EKVX = tested on: EKVX
HCC 2998 = tested on: HCC 2998
HCT-116 = tested on: HCT-116
HCT-15 = tested on: HCT-15
HL-60 = tested on: HL-60
HOP-62 = tested on: HOP-62
HOP-92 = tested on: HOP-92
HT-29 = tested on: HT-29
Hs-578T = tested on: Hs-578T
IGROV-1 = tested on: IGROV-1
K562 = tested on: K562
KM12 = tested on: KM12
LOX IMVI = tested on: LOX IMVI
M14 = tested on: M14
MCF7 = tested on: MCF7
MDA-MB-231 = tested on: MDA-MB-231
MDA-MB-435 = tested on: MDA-MB-435
MDA-N = tested on: MDA-N
MOLT-4 = tested on: MOLT-4
Malme-3M = tested on: Malme-3M
NCI-H226 = tested on: NCI-H226
NCI-H23 = tested on: NCI-H23
NCI-H460 = tested on: NCI-H460
NCI-H522 = tested on: NCI-H522
NCI/ADR-RES = tested on: NCI/ADR-RES
OVCAR-3 = tested on: OVCAR-3
OVCAR-4 = tested on: OVCAR-4
OVCAR-5 = tested on: OVCAR-5
OVCAR-8 = tested on: OVCAR-8
PC-3 = tested on: PC-3
RXF 393 = tested on: RXF 393
SF-268 = tested on: SF-268
SF-295 = tested on: SF-295
SF-539 = tested on: SF-539
SK-MEL-28 = tested on: SK-MEL-28
SK-MEL-2 = tested on: SK-MEL-2
SK-MEL-5 = tested on: SK-MEL-5
SK-OV-3 = tested on: SK-OV-3
SN12C = tested on: SN12C
SNB-19 = tested on: SNB-19
SNB-75 = tested on: SNB-75
SW-620 = tested on: SW-620
T47D = tested on: T47D
TK-10 = tested on: TK-10
U-251 = tested on: U-251
UACC-257 = tested on: UACC-257
UACC-62 = tested on: UACC-62
UO-31 = tested on: UO-31
RPMI-8226 = tested on: RPMI-8226

Measured: GI50

COC(=O)c1ccccc1C1CN=NC12Cc1cc3c(cc1C2=O)CCC3 (stereo not drawn)
inactive: 786-0 > 100 µM | A498 > 100 µM | A549 63.4 µM | ACHN > 100 µM | BT-549 > 100 µM | CAKI-1 > 100 µM | CCRF-CEM 29.2 µM | COLO 205 41.9 µM | DU-145 > 100 µM | EKVX 74.5 µM | HCC 2998 47.1 µM | HCT-116 36.3 µM | HL-60 21.4 µM | HOP-62 > 100 µM | HOP-92 30.7 µM | HT-29 87.5 µM | Hs-578T > 100 µM | IGROV-1 > 100 µM | K562 30.3 µM | KM12 32.1 µM | LOX IMVI 26.9 µM | M14 49.4 µM | MCF7 49.8 µM | MDA-MB-231 40.1 µM | MDA-MB-435 44.5 µM | MDA-N 40.7 µM | MOLT-4 35.5 µM | Malme-3M 95.9 µM | NCI-H226 80 µM | NCI-H23 33.3 µM | NCI-H460 39.9 µM | NCI-H522 32.9 µM | NCI/ADR-RES 37.8 µM | OVCAR-3 82.4 µM | OVCAR-4 44.6 µM | OVCAR-5 > 100 µM | OVCAR-8 48.2 µM | PC-3 45.5 µM | RXF 393 > 100 µM | SF-268 62.4 µM | SF-295 54.2 µM | SF-539 > 100 µM | SK-MEL-28 > 100 µM | SK-MEL-2 > 100 µM | SK-MEL-5 21.6 µM | SK-OV-3 86.9 µM | SN12C 92.9 µM | SNB-19 57.5 µM | SNB-75 61.4 µM | SW-620 67.6 µM | T47D 56.6 µM | TK-10 > 100 µM | U-251 70.3 µM | UACC-257 40.6 µM | UACC-62 69.8 µM | UO-31 50.5 µM
> 100 µM: HCT-15

Cc1ccc(C(=O)Nc2ccc(CP(=O)(O)O)cc2CP(=O)(O)O)cc1NC(=O)Nc1cc(C(=O)Nc2ccc(CP(=O)(O)O)cc2CP(=O)(O)O)ccc1C
> 100 µM: HCT-15
inactive: 786-0 > 100 µM | A498 > 100 µM | A549 > 100 µM | ACHN > 100 µM | BT-549 > 100 µM | CAKI-1 > 100 µM | CCRF-CEM > 100 µM | COLO 205 > 100 µM | DU-145 > 100 µM | EKVX > 100 µM | HCC 2998 > 100 µM | HCT-116 > 100 µM | HL-60 > 100 µM | HOP-62 > 100 µM | HT-29 > 100 µM | Hs-578T > 100 µM | IGROV-1 > 100 µM | K562 > 100 µM | KM12 > 100 µM | LOX IMVI > 100 µM | M14 > 100 µM | MCF7 60.5 µM | MDA-MB-231 > 100 µM | MDA-MB-435 > 100 µM | MDA-N > 100 µM | Malme-3M > 100 µM | NCI-H226 > 100 µM | NCI-H23 > 100 µM | NCI-H460 > 100 µM | NCI-H522 64.9 µM | NCI/ADR-RES > 100 µM | OVCAR-3 > 100 µM | OVCAR-4 > 100 µM | OVCAR-5 > 100 µM | OVCAR-8 > 100 µM | PC-3 > 100 µM | RPMI-8226 > 100 µM | RXF 393 > 100 µM | SF-268 > 100 µM | SF-295 > 100 µM | SF-539 > 100 µM | SK-MEL-28 > 100 µM | SK-MEL-2 > 100 µM | SK-MEL-5 > 100 µM | SK-OV-3 > 100 µM | SN12C > 100 µM | SNB-19 > 100 µM | SNB-75 > 100 µM | SW-620 > 100 µM | T47D > 100 µM | TK-10 > 100 µM | U-251 > 100 µM | UACC-257 > 100 µM | UACC-62 > 100 µM | UO-31 > 100 µM
